Assay results published in patent US20230278972A1, “SUBSTITUTED HALOALKYL SULFONANILIDE HERBICIDES” (FMC Corporation, priority 2020, published 2023).

Tests used:
Format in all cases: in vivo
[1] = system: ragweed (common ragweed, Ambrosia artemisiifolia); test: Test A1 preemergence, ragweed
Procedure, shortened: (§1)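 Seeds were first planted into a blend of loam soil and sand and given a preemergence directed soil spray. In parallel, pots of the same soil were sown for postemergence application once plants reached 2 to 10 cm and the one- to two-leaf stage. Both used surfactant-containing non-phytotoxic solvent formulations.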

[2] = system: soybean (Glycine max); test: Test A1 preemergence, soybean
Procedure, shortened: as §1

[3] = system: blackgrass (Alopecurus myosuroides); test: Test A1 postemergence, blackgrass; conditions: 0 to 100 scale (0 no effect, 100 complete control); for Plant response rating, Blackgrass: Postemergence; for Blackgrass plant response rating: postemergence
Procedure, shortened: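 Test compounds were formulated in a non-phytotoxic solvent mixture containing a surfactant. For preemergence, seeds sown in a loam soil–sand blend received a directed soil spray. For postemergence, potted plants in the same soil, 2 to 10 cm tall at the one- to two-leaf stage, were sprayed.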

[4] = system: corn (Zea mays); test: Test A1 postemergence, corn; conditions: for Plant response rating, Corn: Postemergence; for Corn plant response rating: postemergence
Procedure, shortened: as §1

[5] = 31 g ai/ha, 0 to 100 scale (0 no effect, 100 complete control)
[6] = 125 g ai/ha, 0 to 100 scale, 0 no effect, 100 complete control
[7] = 31 g ai/ha, 0 to 100 scale (0 no effect, 100 complete control), 10 days
[8] = 125 g ai/ha, 0 to 100 scale (0 no effect, 100 complete control), 10 days
[9] = 500 g ai/ha, 0 to 100 scale (0 no effect, 100 complete control)
[10] = 125 g ai/ha, 0 to 100 scale (0 no effect, 100 complete control)

| Structure (SMILES) | Plant response rating, Ragweed [1, 5] | Plant response rating, Ragweed [1, 6] | Plant response rating, Soybean [2, 5] | Plant response rating, Soybean [2, 6] | Plant response rating, Blackgrass ([3]; 31 g ai/ha, 10 days) | Plant response rating, Blackgrass ([3]; 125 g ai/ha) | Plant response rating, Corn [4, 7] | Plant response rating, Corn ([4]; 125 g ai/ha, 0 to 100 scale) | Corn plant response rating [4, 5] | Plant response rating, Corn [4, 8] | Plant response rating, Ragweed [1, 9] | Plant response rating, Soybean [2, 9] | Plant response rating, Blackgrass ([3]; 125 g ai/ha, 10 days) | Plant response rating, Blackgrass ([3]; 500 g ai/ha) | Plant response rating, Corn ([4]; 500 g ai/ha, 0 to 100 scale) | Plant response rating, Ragweed [1, 10] | Plant response rating, Soybean [2, 10] | Blackgrass plant response rating ([3]; 31 g ai/ha) |
| --- | --- | --- | --- | --- | --- | --- | --- | --- | --- | --- | --- | --- | --- | --- | --- | --- | --- | --- |
| CCOC(=O)N(c1cc(C2=NOC3CCCC23)c(CC)cc1C)S(=O)(=O)C(F)(F)F (centres unmarked) [Compound 379] | 0 | 0 | 0 | 0 | 0 | 30 | 0 | 0 | – | – | – | – | – | – | – | – | – | – |
| Cc1cc(Cl)c(NS(=O)(=O)C(F)(F)F)cc1N1CC2(CCCCC2)OC1=O [Compound 394] | 40 | 90 | 50 | 60 | – | – | – | – | 0 | 40 | – | – | – | – | – | – | – | – |
| Cc1cc(C)c(N(COC(=O)C(C)(C)C)S(=O)(=O)C(F)(F)F)cc1N1CCC2(CCC(F)(F)CC2)C1=O [Compound 397] | – | 90 | – | 40 | – | – | – | – | – | 10 | 90 | 80 | 40 | 90 | 10 | – | – | – |
| CCOc1cccc2c1C(=O)N(c1cc(N(COC(=O)C(C)(C)C)S(=O)(=O)Cl)c(C)cc1C)C2 [Compound 414] | – | – | – | – | – | – | – | – | 0 | 0 | – | – | 30 | – | – | 20 | 0 | 0 |
| Cc1cc(C)c(C2=NOC(C(C)C)C2)cc1NS(=O)(=O)C(F)(F)F (centres unmarked) [Compound 381] | 0 | 0 | 0 | 50 | – | – | – | – | 0 | 20 | – | – | 70 | – | – | – | – | 0 |
| Cc1cc(C)c(N(S(=O)(=O)C(F)(F)F)S(=O)(=O)C(F)(F)F)cc1N1CCC2(CCC(C(F)(F)F)CC2)C1=O (centres unmarked) [Compound 399] | 0 | 60 | 30 | 40 | – | – | – | – | 0 | 10 | – | – | 90 | – | – | – | – | 40 |
| Cc1c(NS(=O)(=O)C(F)(F)F)cc(C2=NOC3(CCCC3)C2)c(C)c1C [Compound 380] | 0 | 40 | 20 | 50 | – | – | – | – | 0 | 50 | – | – | 20 | – | – | – | – | 20 |
| Cc1cc(Cl)c(NS(=O)(=O)C(F)(F)F)cc1N1CCC2(CCCCC2)C1=O [Compound 393] | 40 | 90 | 60 | 80 | – | – | – | – | 0 | 30 | – | – | – | – | – | – | – | – |
| Cc1cc(C)c(N(COC(=O)C(C)(C)C)S(=O)(=O)C(F)(F)F)cc1N1CCC2(CCC(C(F)(F)F)CC2)C1=O (centres unmarked) [Compound 403] | 0 | 20 | 0 | 0 | – | – | – | – | 0 | 0 | – | – | 0 | – | – | – | – | 0 |
| Cc1cc(C)c(N2Cc3cccc(Br)c3C2=O)cc1NS(=O)(=O)Cl [Compound 415] | – | – | – | – | – | – | – | – | 0 | 50 | – | – | 40 | – | – | 90 | 0 | 0 |
| Cc1ccc(C2=NOC3CCCC23)cc1NS(=O)(=O)C(F)(F)F (centres unmarked) [Compound 377] | 0 | 0 | 0 | 0 | 0 | 0 | 0 | 0 | – | – | – | – | – | – | – | – | – | – |
| COC1CCC2(CC1)CCN(c1cc(NS(=O)(=O)C(F)(F)F)c(C)cc1C)C2=O (centres unmarked) [Compound 398] | 20 | 80 | 70 | 90 | – | – | – | – | 30 | 60 | – | – | 30 | – | – | – | – | 0 |
| CCOC(=O)N(c1cc(C(=O)N2CCSCC2)c(C)c(C)c1C)S(=O)(=O)C(F)(F)F [Compound 286] | 0 | 10 | 0 | 40 | 0 | 40 | 0 | 0 | – | – | – | – | – | – | – | – | – | – |
| Cc1c(C(=O)N2CCSCC2)cc(N(COC(=O)C(C)(C)C)S(=O)(=O)C(F)(F)F)c(C)c1C [Compound 285] | 0 | 10 | 0 | 0 | 0 | 30 | 0 | 0 | – | – | – | – | – | – | – | – | – | – |
| Cc1c(C2=NOC3(CCCC3)C2)cc(N(COC(=O)C(C)(C)C)S(=O)(=O)C(F)(F)F)c(C)c1C [Compound 382] | 0 | 0 | 0 | 0 | – | – | – | – | 0 | 0 | – | – | 0 | – | – | – | – | 0 |
| COc1cccc2c1C(=O)N(c1cc(N(COC(=O)C(C)(C)C)S(=O)(=O)Cl)c(C)cc1C)C2 [Compound 413] | – | – | – | – | – | – | – | – | 30 | 30 | – | – | 0 | – | – | 90 | 50 | 0 |
| Cc1cc(C)c(N2Cc3cccc(C)c3C2=O)cc1NS(=O)(=O)Cl [Compound 408] | – | – | – | – | – | – | – | – | 80 | 80 | – | – | 90 | – | – | 50 | 50 | 80 |
| CCc1cc(C)c(N(COC(=O)C(C)(C)C)S(=O)(=O)C(F)(F)F)cc1C1=NOC2CCCC12 (centres unmarked) [Compound 378] | 0 | 0 | 0 | 0 | 0 | 30 | 0 | 30 | – | – | – | – | – | – | – | – | – | – |
| Cc1c(NS(=O)(=O)C(F)(F)F)cc(C(=O)N2CCSCC2)c(C)c1C [Compound 283] | 0 | 40 | 0 | 50 | 0 | 10 | 0 | 0 | – | – | – | – | – | – | – | – | – | – |
